Laboratory results from patent US10875851B2, “Factor XIIa inhibitors” (Merck Sharp & Dohme Corp., priority 2016, dated 2020).

Each molecule was assayed against human Factor XIIa (Homo sapiens (Human), UniProt P00748) (assay: Factor XIIa Assay). Conditions: purified human Factor XIIa 500 pM; substrate n-Acetyl-Lys-Pro-Arg-AFC 100 μM; pH 7.4; read-out: FXIIa IC50.
Chain of human Factor XIIa (P00748 373-615): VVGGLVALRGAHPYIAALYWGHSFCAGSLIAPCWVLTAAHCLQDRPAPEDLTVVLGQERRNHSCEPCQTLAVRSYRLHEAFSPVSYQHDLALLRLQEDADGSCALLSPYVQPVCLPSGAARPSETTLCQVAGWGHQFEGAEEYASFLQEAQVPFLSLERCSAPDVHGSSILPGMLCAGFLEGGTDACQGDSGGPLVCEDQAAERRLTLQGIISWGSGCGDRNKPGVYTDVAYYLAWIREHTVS
Format: biochemical
Summary of the method: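 Purified human FXIIa at 500 pM final with 100 μM n-Acetyl-Lys-Pro-Arg-AFC in 50 mM HEPES, 150 mM NaCl, 5 mM CaCl2, 0.1% PEG 8000, pH 7.4, at room temperature or 37° C. Initial fluorogenic hydrolysis rates measured after enzyme–inhibitor equilibration; IC50 taken where Vi=Vo/2.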
`Cc1ccc(OC(=O)N2CCN(C(=O)[C@@H](CCCCN(C)C)N(C)C3CCC4(CC3)CCN(Cc3ccccc3)C4)[C@H](C(=O)NCc3cccs3)C2)c(Cl)c1C` (stereo partly drawn) [Example 100, 2-chloro-3,4-dimethylphenyl (3S)-4-[N^2-(2-benzyl-2-azaspiro[4.5]dec-8-yl)-N^2,N^6,N^6-trimethyl-D-lysyl]-3-[(thiophen-2-ylmethyl)carbamoyl]piperazine-1-carboxylate] showed an IC50 of 0.5 nM. For `C[C@@H]1N=C(N2CCN(C(=O)[C@@H](CCCCN3CCCCC3)NC3CCC(CN)CC3)[C@H](C(=O)NCc3cccc(Cl)c3)C2)O[C@H]1c1ccccc1` (stereo partly drawn) [Example 176, (2S)-1-{N-[4-(aminomethyl)cyclohexyl]-6-piperidin-1-yl-D-norleucyl}-N-(3-chlorobenzyl)-4-[(4S,5S)-4-methyl-5-phenyl-4,5-dihydro-1,3-oxazol-2-yl]piperazine-2-carboxamide], the IC50 was 29 nM. For `CC[C@@H](C)N[C@H](CCCCN1CCCCC1)C(=O)N1CCN(C2=N[C@@H](C)[C@H](c3ccccc3)O2)C[C@H]1C(=O)NCc1cccc(Cl)c1` [Example 170, (2S)-N-(3-chlorobenzyl)-4-[(4S,5S)-4-methyl-5-phenyl-4,5-dihydro-1,3-oxazol-2-yl]-1-{N-[(1R)-1-methylpropyl]-6-piperidin-1-yl-D-norleucyl}piperazine-2-carboxamide], the IC50 was 2.5 nM. With `CS(=O)(=O)NCCCC[C@@H](NC1CCC2(CC1)CCN(Cc1ccccc1)C2)C(=O)N1CCN(C(=O)Oc2cccc(CN)c2Cl)C[C@H]1C(=O)NCc1cccs1` (stereo partly drawn) [Example 82, 3-(aminomethyl)-2-chlorophenyl (3S)-4-[N^2-(2-benzyl-2-azaspiro[4.5]dec-8-yl)-N^6-(methylsulfonyl)-D-lysyl]-3-[(thiophen-2-ylmethyl)carbamoyl]piperazine-1-carboxylate] the IC50 was 2.1 nM. For `CC1(C)N=C(N2CCN(C(=O)[C@@H](CC3CCCCC3)NC3CCCCC3)[C@H](C(=O)NCc3cccs3)C2)OC1c1ccccc1` (stereo partly drawn) [Example 140, (2S)-1-(N,3-dicyclohexyl-D-alanyl)-4-(4,4-dimethyl-5-phenyl-4,5-dihydro-1,3-oxazol-2-yl)-N-(thiophen-2-ylmethyl)piperazine-2-carboxamide], the IC50 was 19 nM. In the case of `C[C@@H]1N=C(N2CCN(C(=O)[C@@H](CCCCNS(C)(=O)=O)NC3CCCCC3)[C@H](C(=O)NCc3cccs3)C2)O[C@H]1c1ccccc1` [Example 123, (2S)-1-[N^2-cyclohexyl-N^6-(methylsulfonyl)-D-lysyl]-4-[(4S,5S)-4-methyl-5-phenyl-4,5-dihydro-1,3-oxazol-2-yl]-N-(thiophen-2-ylmethyl)piperazine-2-carboxamide], the IC50 is reported as 7 nM. For `C[C@@H]1N=C(N2CCN(C(=O)[C@@H](CCCCNS(C)(=O)=O)NC3CCCCC3)[C@H](C(=O)NCc3cccs3)C2)O[C@H]1c1cccc(CN)c1` [Example 117, (2S)-4-{(4S,5S)-5-[3-(aminomethyl)phenyl]-4-methyl-4,5-dihydro-1,3-oxazol-2-yl}-1-[N^2-cyclohexyl-N^6-(methylsulfonyl)-D-lysyl]-N-(thiophen-2-ylmethyl)piperazine-2-carboxamide], the IC50 was 5.2 nM. For `C[C@@H]1N=C(N2CCN(C(=O)[C@H](N)CCCCN3CCCCC3)[C@H](C(=O)NCc3ccc4[nH]cc(Cl)c4c3)C2)O[C@H]1c1ccccc1` [Example 162, (2S)-N-[(3-chloro-1H-indol-5-yl)methyl]-4-[(4S,5S)-4-methyl-5-phenyl-4,5-dihydro-1,3-oxazol-2-yl]-1-(6-piperidin-1-yl-D-norleucyl)piperazine-2-carboxamide], the IC50 was 8.4 nM. Molecule `Cc1ccc(OC(=O)N2CCN(C(=O)[C@@H](CCCCNC(C)C)NC(C)C)[C@H](C(=O)NCc3cccs3)C2)c(Cl)c1C` [Example 103, 2-chloro-3,4-dimethylphenyl (3S)-4-[N^2,N^6-bis(1-methylethyl)-D-lysyl]-3-[(thiophen-2-ylmethyl)carbamoyl]piperazine-1-carboxylate] has an IC50 of 1.4 nM. For `COc1cc(CNC(=O)[C@@H]2CN(C3=NC(C)(C)[C@H](c4ccccc4)O3)CCN2C(=O)[C@@H](CCCCN(C)C)N(C)C)ccc1C(N)=O` [Example 154, (2S)-N-(4-carbamoyl-3-methoxybenzyl)-4-[(5S)-4,4-dimethyl-5-phenyl-4,5-dihydro-1,3-oxazol-2-yl]-1-(N^2,N^2,N^6,N^6-tetramethyl-D-lysyl)piperazine-2-carboxamide], the IC50 was 12.4 nM. `COc1cc(CNC(=O)[C@@H]2CN(C(=O)Oc3ccc4ccccc4c3Cl)CCN2C(=O)[C@@H](CCCCN(C)C)NC2CCC(CN)CC2)ccc1CN` (stereo partly drawn) [Example 92, 1-chloronaphthalen-2-yl (3S)-4-{N^2-[4-(aminomethyl)cyclohexyl]-N^6,N^6-dimethyl-D-lysyl}-3-{[4-(aminomethyl)-3-methoxybenzyl]carbamoyl}piperazine-1-carboxylate] was tested, and the IC50 was 2.9 nM. `Cc1ccc(OC(=O)N2CCN(C(=O)[C@@H](CCCCN3CCCC3)NC3CCC4(CC3)CCN(Cc3ccccc3)C4)[C@H](C(=O)NCc3cccs3)C2)c(Cl)c1C` (stereo partly drawn) [Example 109, 2-chloro-3,4-dimethylphenyl (3S)-4-[N-(2-benzyl-2-azaspiro[4.5]dec-8-yl)-6-pyrrolidin-1-yl-D-norleucyl]-3-[(thiophen-2-ylmethyl)carbamoyl]piperazine-1-carboxylate] gave an IC50 of 1 nM. With `CC[C@@H](NC1CCC2(CC1)CCN(Cc1ccccc1)C2)C(=O)N1CCN(C(=O)Oc2ccc(C)c(C)c2Cl)C[C@H]1C(=O)NCc1ccc(CN)c(OC)c1` (stereo partly drawn) [Example 107, 2-chloro-3,4-dimethylphenyl (3S)-3-{[4-(aminomethyl)-3-methoxybenzyl]carbamoyl}-4-{(2R)-2-[(2-benzyl-2-azaspiro[4.5]dec-8-yl)amino]butanoyl}piperazine-1-carboxylate] the IC50 was 14 nM.
